Experimental findings from patent US20210002649A1, “COMPOSITIONS AND METHODS FOR TREATING CANCER” (Beth Israel Deaconess Medical Center, Inc., priority 2018, published 2021) are described below.

The subject of assay [1] is PD-L1 protein levels in WWP1 knock-out cells. Kind of assay: PD-L1 protein levels in WWP1 knock-out cells (gel image). In kind it is cell-based. To be noted: MG132 treatment (FIG. 12).
The next assay concerns the target T1, WWP1 (Mus musculus, UniProt Q8BZZ3).
T1 construct: from tissue
The assay is described as follows: Active CD8 T cell tumor infiltration, syngenic mice model. It counts as in vivo.

Assay [2] relates to JAK-STAT, NF-kB, and TNFα pathway. Kind of assay: RNA-seq analysis of immune suppressive pathways in Hi-Myc mice. It counts as in vivo. To be noted: I3C treated Hi-Myc mice, versus vehicle (FIGS. 17-20).

Where a SMILES comes first, the peptide text is derived from it. The star is where a group is joined. Cbz = O=C(OCc1ccccc1)*

T1 sequence (Q8BZZ3 whole entry): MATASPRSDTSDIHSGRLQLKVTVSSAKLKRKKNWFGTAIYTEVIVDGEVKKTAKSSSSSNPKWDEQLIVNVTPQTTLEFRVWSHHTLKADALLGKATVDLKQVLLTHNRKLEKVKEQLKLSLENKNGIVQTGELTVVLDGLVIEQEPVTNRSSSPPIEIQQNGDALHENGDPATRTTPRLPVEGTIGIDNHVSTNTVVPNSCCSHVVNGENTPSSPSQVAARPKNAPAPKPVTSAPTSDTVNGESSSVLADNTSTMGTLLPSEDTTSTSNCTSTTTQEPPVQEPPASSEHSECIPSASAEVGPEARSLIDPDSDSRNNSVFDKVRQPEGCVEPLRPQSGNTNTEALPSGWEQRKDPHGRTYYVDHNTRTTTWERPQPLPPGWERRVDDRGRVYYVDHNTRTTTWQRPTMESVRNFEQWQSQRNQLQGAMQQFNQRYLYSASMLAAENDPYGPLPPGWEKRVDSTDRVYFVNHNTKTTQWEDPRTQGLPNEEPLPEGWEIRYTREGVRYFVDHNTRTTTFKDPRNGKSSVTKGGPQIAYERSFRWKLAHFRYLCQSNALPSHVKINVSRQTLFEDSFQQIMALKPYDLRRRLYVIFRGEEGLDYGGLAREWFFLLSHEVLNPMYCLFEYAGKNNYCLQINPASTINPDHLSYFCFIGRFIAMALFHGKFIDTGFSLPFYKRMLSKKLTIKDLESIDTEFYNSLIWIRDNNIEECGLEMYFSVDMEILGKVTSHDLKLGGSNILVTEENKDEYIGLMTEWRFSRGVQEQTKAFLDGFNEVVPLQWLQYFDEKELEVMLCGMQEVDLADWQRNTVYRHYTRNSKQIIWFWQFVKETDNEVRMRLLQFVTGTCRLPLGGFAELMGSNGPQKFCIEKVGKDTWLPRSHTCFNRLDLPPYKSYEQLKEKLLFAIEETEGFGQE

`CC(C)C[C@@H](C=O)NC(=O)[C@H](CC(C)C)NC(=O)[C@H](CC(C)C)NC(=O)OCc1ccccc1` [MG132] (Cbz-Leu-Leu-Leu-aldehyde): in assay [1], the PD-L1 protein levels entry was “restored PD-L1 protein levels”.

As for `OCc1c[nH]c2ccccc12` [I3C, indole-3-carbinol], the “active CD8 T cell tumor infiltration” value on WWP1 (syngenic mice (FIG. 16)) was “triggers active CD8 T cell tumor infiltration”. In addition, the tumor size entry at WWP1 (tumors, after WWP1 inhibition by I3C) is “reducing tumor size”. Besides, the “immune suppressive pathways (RNA-seq)” value in assay [2] was “down-regulation of multiple immune suppressive pathway (JAK-STAT, NF-kB, and TNFα pathway)”.
